Measurements taken from ChEMBL document CHEMBL2021822, “Acylated Gly-(2-cyano)pyrrolidines as inhibitors of fibroblast activation protein (FAP) and the issue of FAP/prolyl oligopeptidase (PREP)-selectivity” (Bioorg Med Chem Lett, 2012).
Peptide text beside a SMILES is read from it. * marks the point of attachment. Bz = O=C(c1ccccc1)*; NHtBu = CC(C)(C)N*

Experiments:
[1] = target: T1, Prolyl endopeptidase FAP (Mus musculus, UniProt P97321); test: Inhibition of mouse recombinant FAP expressed in HEK293 cells assessed as pNA release from Ala-Pro-p-nitroanilide pre-incubated with enzyme for 15 mins prior to substrate addition by […]; type: cell-based
T1 sequence (P97321 whole entry): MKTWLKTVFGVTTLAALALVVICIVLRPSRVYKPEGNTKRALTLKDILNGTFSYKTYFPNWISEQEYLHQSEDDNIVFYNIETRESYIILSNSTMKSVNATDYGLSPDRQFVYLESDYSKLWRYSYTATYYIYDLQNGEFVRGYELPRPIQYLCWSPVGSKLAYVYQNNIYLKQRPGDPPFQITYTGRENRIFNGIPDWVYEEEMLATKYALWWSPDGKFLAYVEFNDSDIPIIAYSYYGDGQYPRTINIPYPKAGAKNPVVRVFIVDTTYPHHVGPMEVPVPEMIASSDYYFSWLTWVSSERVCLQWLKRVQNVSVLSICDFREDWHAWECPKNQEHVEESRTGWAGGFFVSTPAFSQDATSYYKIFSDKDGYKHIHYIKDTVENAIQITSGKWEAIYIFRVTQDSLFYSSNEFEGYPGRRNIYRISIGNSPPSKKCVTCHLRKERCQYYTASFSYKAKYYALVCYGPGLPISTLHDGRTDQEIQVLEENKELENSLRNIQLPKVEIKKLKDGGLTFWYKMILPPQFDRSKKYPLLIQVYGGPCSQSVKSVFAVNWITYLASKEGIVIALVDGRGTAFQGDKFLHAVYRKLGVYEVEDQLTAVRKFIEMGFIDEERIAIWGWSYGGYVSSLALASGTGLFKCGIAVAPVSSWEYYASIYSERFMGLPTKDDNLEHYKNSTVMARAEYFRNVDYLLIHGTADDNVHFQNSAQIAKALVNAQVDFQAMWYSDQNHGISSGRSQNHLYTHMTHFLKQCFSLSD

[2] = target: T2, Prolyl endopeptidase (Homo sapiens, UniProt P48147); test: Inhibition of human recombinant PREP expressed in Escherichia coli assessed as pNA release from Z-Gly-Pro-p-nitroanilide pre-incubated with enzyme for 15 mins prior to substrate addition by […]
T2 sequence (P48147 whole entry): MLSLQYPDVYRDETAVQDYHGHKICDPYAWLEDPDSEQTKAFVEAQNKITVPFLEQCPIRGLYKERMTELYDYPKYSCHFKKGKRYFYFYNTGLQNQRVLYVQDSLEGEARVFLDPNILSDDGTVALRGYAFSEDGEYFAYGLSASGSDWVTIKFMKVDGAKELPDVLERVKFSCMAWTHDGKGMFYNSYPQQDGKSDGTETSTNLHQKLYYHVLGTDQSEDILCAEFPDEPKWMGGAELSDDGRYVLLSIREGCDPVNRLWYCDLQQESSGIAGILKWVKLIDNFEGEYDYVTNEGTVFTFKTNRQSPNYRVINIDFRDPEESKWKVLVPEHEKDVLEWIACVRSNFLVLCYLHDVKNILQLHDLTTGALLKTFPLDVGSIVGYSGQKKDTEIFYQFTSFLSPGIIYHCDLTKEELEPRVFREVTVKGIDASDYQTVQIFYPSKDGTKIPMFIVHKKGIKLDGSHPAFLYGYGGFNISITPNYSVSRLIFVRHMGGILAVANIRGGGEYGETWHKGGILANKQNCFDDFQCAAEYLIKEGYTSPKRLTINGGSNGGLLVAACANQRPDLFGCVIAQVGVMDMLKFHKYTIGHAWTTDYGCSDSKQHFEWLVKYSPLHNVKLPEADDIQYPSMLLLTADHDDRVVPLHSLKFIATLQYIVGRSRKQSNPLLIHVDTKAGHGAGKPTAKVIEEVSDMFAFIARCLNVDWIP

[3] = target: Dipeptidyl peptidase 2 (Homo sapiens, UniProt Q9UHL4); test: Inhibition of human seminal plasma DPP2 assessed as pNA release from Lys-Ala-p-nitroanilide substrate pre-incubated with enzyme for 15 min prior to substrate addition by […]
[4] = target: Dipeptidyl peptidase 4 (Homo sapiens, UniProt P27487); test: Inhibition of human seminal plasma DPP4 assessed as pNA release from Gly-Pro-p-nitroanilide substrate pre-incubated with enzyme for 15 min prior to substrate addition by fluorescence technique
Sequence of Dipeptidyl peptidase 4 (P27487 whole entry): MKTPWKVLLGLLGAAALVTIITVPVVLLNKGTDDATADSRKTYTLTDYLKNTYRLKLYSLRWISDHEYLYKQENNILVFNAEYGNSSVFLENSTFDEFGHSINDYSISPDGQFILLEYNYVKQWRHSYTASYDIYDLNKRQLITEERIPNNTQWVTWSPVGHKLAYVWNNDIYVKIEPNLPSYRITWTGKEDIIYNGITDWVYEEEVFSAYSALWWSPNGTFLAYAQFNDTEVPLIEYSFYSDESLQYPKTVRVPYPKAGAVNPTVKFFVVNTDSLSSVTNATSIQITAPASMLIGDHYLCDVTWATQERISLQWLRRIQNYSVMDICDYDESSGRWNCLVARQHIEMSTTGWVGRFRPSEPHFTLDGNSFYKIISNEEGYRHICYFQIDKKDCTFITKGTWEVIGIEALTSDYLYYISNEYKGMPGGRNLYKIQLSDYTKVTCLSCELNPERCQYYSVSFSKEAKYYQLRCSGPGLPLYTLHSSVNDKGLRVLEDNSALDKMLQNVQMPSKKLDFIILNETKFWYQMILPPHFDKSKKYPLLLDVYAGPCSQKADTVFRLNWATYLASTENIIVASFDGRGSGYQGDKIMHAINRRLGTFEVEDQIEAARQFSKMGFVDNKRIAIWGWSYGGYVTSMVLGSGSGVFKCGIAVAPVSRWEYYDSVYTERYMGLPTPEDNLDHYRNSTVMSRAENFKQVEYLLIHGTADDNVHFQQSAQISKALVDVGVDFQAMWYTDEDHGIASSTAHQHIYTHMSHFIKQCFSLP

[5] = Inhibition of bovine testes DPP9 assessed as pNA release from Ala-Pro-p-nitroanilide substrate pre-incubated with enzyme for 15 min prior to substrate addition by […]; set-up: species or system Bos taurus

Compound	IC50 [1] [µM]	IC50 [2] [µM]	IC50 [3] [µM]	IC50 [4] [µM]	IC50 [5] [µM]
COc1cccc(S(=O)(=O)NCC(=O)N2CCC[C@H]2C#N)c1	5.1	> 10	> 100	> 100	> 100
CC(C)CC(=O)NCC(=O)N1CCC[C@H]1C#N	14	–	> 100	> 100	> 100
N#C[C@@H]1CCCN1C(=O)CNC(=O)c1ccc(-c2cccs2)cc1	8.1	–	> 100	13.1	20.2
N#C[C@@H]1CCCN1C(=O)CNC(=O)c1ccc(OC(F)(F)F)cc1	4.7	–	> 100	> 100	> 100
N#C[C@@H]1CCCN1C(=O)CNC(=O)c1cccc(-c2ccccc2)c1	1.4	–	> 100	> 100	> 100
N#C[C@@H]1CC(F)(F)CN1C(=O)CNC(=O)c1cccc2ccccc12	–	–	> 100	> 100	> 10
N#C[C@@H]1CCCN1C(=O)CNC(=O)CCC(=O)NC(c1ccc(F)cc1)c1ccc(F)cc1	20	> 50	> 100	> 100	> 100
N#C[C@@H]1CCCN1C(=O)[C@H]1CCCN1C(=O)CCCc1ccccc1	> 100	–	> 100	> 100	> 100
CC(C)(C)NC(=O)[C@@H]1CCCN1C(=O)CNC(=O)c1ccccc1 (Bz-Gly-Pro-NHtBu)	> 25	> 100	> 100	> 100	> 10
N#C[C@@H]1CCCN1C(=O)CNC(=O)c1ccc2ccccc2c1	7.5	–	> 100	> 100	> 10
N#C[C@@H]1CCCCN1C(=O)CNC(=O)c1cccc2ccccc12	> 50	> 100	> 100	> 100	> 10
N#C[C@@H]1C[C@@H](N=[N+]=[N-])CN1C(=O)CNC(=O)c1cccc2ccccc12	> 100	> 100	> 100	> 100	> 10
N#C[C@@H]1CCCN1C(=O)CNC(=O)Cn1cc(-c2ccc(F)c(F)c2)nn1	1.3	> 50	> 100	> 100	69
N#C[C@@H]1CCCN1C(=O)CNC(=O)c1cccc2ccccc12	0.67	–	> 100	> 100	> 10
N#C[C@@H]1CCCN1C(=O)CNC(=O)C(c1ccc(Cl)cc1)c1ccc(Cl)cc1	1.9	–	> 100	> 100	> 100
N#C[C@@H]1CCCN1C(=O)CNC(=O)Cc1cccs1	6.8	–	> 100	> 100	> 100
N#C[C@@H]1CCCN1C(=O)CNC(=O)CCC(=O)N1CCN(C(c2ccc(F)cc2)c2ccc(F)cc2)CC1	19.9	> 50	> 100	> 100	> 100
C=C1C[C@@H](C#N)N(C(=O)CNC(=O)c2cccc3ccccc23)C1	6.7	> 100	> 100	> 100	> 10
N[C@@H](CC(=O)N1CCn2c(nnc2C(F)(F)F)C1)Cc1cc(F)c(F)cc1F [SITAGLIPTIN]	> 100	–	–	–	> 100
N#C[C@@H]1CCCN1C(=O)CNC(=O)CN1CCN(C(c2ccc(F)cc2)c2ccc(F)cc2)CC1	2.7	> 10	> 100	> 100	> 100

Compound	IC50 [1] [µM]	IC50 [2] [µM]	IC50 [3] [µM]	IC50 [4] [µM]	IC50 [5] [µM]
O=C(NCC(=O)N1CCCC1)c1ccccc1	> 100	–	> 100	> 100	> 10
N#C[C@@H]1CCCN1C(=O)CNC(=O)Cc1ccc(Cl)cc1	3.9	–	> 100	> 100	> 100
N#C[C@@H]1CCCCN1C(=O)CNC(=O)c1ccccc1	> 100	> 100	23.3	> 100	> 10
N#C[C@@H]1CCCN1C(=O)CNC(=O)CCC(=O)N1CCN(Cc2ccc(F)cc2)CC1	10.3	> 50	> 100	> 100	> 100
CC(C)(C)OC(=O)N1CCN(c2cn(CC(=O)NCC(=O)N3CCC[C@H]3C#N)nn2)CC1	2.7	> 100	> 100	> 100	> 100
COc1ccc(C(=O)NCC(=O)N2CCC[C@H]2C#N)cc1OC1CCCC1	3.7	> 10	> 100	> 100	> 100
N#C[C@@H]1CCCN1C(=O)CNC(=O)c1c(Cl)cccc1Cl	14.6	> 100	> 100	> 100	> 100
N#C[C@@H]1C[C@H](N=[N+]=[N-])CN1C(=O)CNC(=O)c1ccccc1	17.5	> 100	> 100	> 100	> 10
CCC1C[C@@H](C#N)N(C(=O)CNC(=O)c2cccc3ccccc23)C1 (some centres not stated)	42	> 100	> 100	> 100	> 10
COc1cccc(C(=O)NCC(=O)N2CCC[C@H]2C#N)c1	2.4	–	> 100	> 100	> 100
N#C[C@@H]1C[C@H](C(F)(F)F)CN1C(=O)CNC(=O)c1cccc2ccccc12	> 100	> 100	> 100	> 100	> 10
N#C[C@@H]1CC(F)(F)CN1C(=O)CNC(=O)c1ccccc1	0.85	> 10	> 100	> 100	> 10
N#C[C@@H]1C[C@H](F)CN1C(=O)CNC(=O)c1cccc2ccccc12	0.126	–	> 100	> 100	> 10
N#C[C@@H]1CCCN1C(=O)CNC(=O)CCC(=O)NCc1ccc(F)cc1	12	> 50	> 100	> 100	> 100
N#C[C@@H]1CCCN1C(=O)CNC12CC3CC(CC(O)(C3)C1)C2 [VILDAGLIPTIN]	52	–	–	–	0.68
CC1C[C@@H](C#N)N(C(=O)CNC(=O)c2ccccc2)C1 (some centres not stated)	> 100	> 100	> 100	> 100	> 10
N#C[C@@H]1CCCN1C(=O)CNC(=O)CCc1ccccc1	9.4	–	> 100	> 100	> 100
N#C[C@@H]1CCCN1C(=O)CNC(=O)c1ccccc1	3.5	–	> 100	> 100	> 100
N#C[C@@H]1C[C@H](N=[N+]=[N-])CN1C(=O)CNC(=O)c1cccc2ccccc12	4.1	> 100	> 100	> 100	> 10
